The record followed here is patent US20250223268A1, “4-Methylsulfonylbenzamide Compound, Preparation Method, Herbicidal Composition And Use” (Jiangsu Flag Chemical Industry Co., Ltd., priority 2022, published 2025).

Holding throughout (assay): Greenhouse herbicidal activity assay, post-emergence
Common to all, as to assay type: in vivo
Holding throughout (conditions): Post-emergence test, rate 150 g a.i./hm^2, grade by fresh weight inhibition rate

Experiment [1] relates to Leptochloa chinensis. In outline: (§1)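 Graded A (≥80%) to E (<20%) by fresh weight inhibition, read 14-21 days after spraying. Plants were pot-grown in a growth chamber and received foliar application at the 3-6 leaf stage, being air-dried and returned to the chamber afterwards.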
For experiment [2], the system named is Eclipta prostrata. In outline: as §1
Experiment [3] relates to Cyperus iria. In outline: as §1
The subject of experiment [4] is Echinochloa crusgalli. In outline:
as §1

For experiment [5], the system named is Digitaria sanguinalis. In outline: as §1

SMILES strings stand for the structures.

On to `CCC[S+]([O-])c1c(S(C)(=O)=O)ccc(C(=O)Nc2nnn[nH]2)c1Cl` (racemic) [Compound 1-78], for which the “Control efficacy grade, Leptochloa chinensis” value in experiment [1] is listed as “A (Fresh weight inhibition rate≥80% to 100%)”. The “Control efficacy grade, Eclipta prostrata” value in experiment [2] is given as “A (Fresh weight inhibition rate≥80% to 100%)”. Besides, in experiment [3], the “Control efficacy grade, Cyperus iria” value was “A (Fresh weight inhibition rate≥80% to 100%)”. For the same compound, the “Control efficacy grade, Echinochloa crusgalli” value in experiment [4] was “A (Fresh weight inhibition rate≥80% to 100%)”. The “Control efficacy grade, Digitaria sanguinalis” value in experiment [5] is “A (Fresh weight inhibition rate≥80% to 100%)”.
As to `Cc1nnc(NC(=O)c2ccc(S(C)(=O)=O)c([S+]([O-])C(C)C)c2Cl)o1` (centres unmarked) [Compound 3-7, 2-chloro-3-(isopropylsulfinyl)-N-(5-methyl-1,3,4-oxadiazol-2-yl)-4-(methylsulfonyl)benzamide], the pest or weed control at 150 g/ha in experiment [1] (Dinebra chinensis, read-out: Control efficacy grade, Leptochloa chinensis) lay within 80 to 100%; in experiment [2] (Eclipta prostrata, read-out: Control efficacy grade, Eclipta prostrata), 80 to 100%; in experiment [3] (Cyperus iria, read-out: Control efficacy grade, Cyperus iria) it was 80 to 100%; in experiment [4] (Echinochloa crus-galli, read-out: Control efficacy grade, Echinochloa crusgalli) it was 80 to 100%; in experiment [5] (Digitaria sanguinalis, read-out: Control efficacy grade, Digitaria sanguinalis), 80 to 100%.
Regarding `CCCC[S+]([O-])c1c(S(C)(=O)=O)ccc(C(=O)Nc2nnnn2C)c1Cl` (racemic) [Compound 1-12], the “Control efficacy grade, Leptochloa chinensis” value in experiment [1] was “A (Fresh weight inhibition rate≥80% to 100%)”. The “Control efficacy grade, Eclipta prostrata” value in experiment [2] was “A (Fresh weight inhibition rate≥80% to 100%)”. Moreover, in experiment [3], the “Control efficacy grade, Cyperus iria” value is listed as “A (Fresh weight inhibition rate≥80% to 100%)”. The “Control efficacy grade, Echinochloa crusgalli” value in experiment [4] is given as “A (Fresh weight inhibition rate≥80% to 100%)”. In addition, the “Control efficacy grade, Digitaria sanguinalis” value in experiment [5] is recorded as “A (Fresh weight inhibition rate≥80% to 100%)”.
Regarding `CCC[S+]([O-])c1c(S(C)(=O)=O)ccc(C(=O)Nc2nnnn2CC)c1Cl` (racemic) [Compound 1-88], the “Control efficacy grade, Leptochloa chinensis” value in experiment [1] was “A (Fresh weight inhibition rate≥80% to 100%)”. Besides, the “Control efficacy grade, Eclipta prostrata” value in experiment [2] is “A (Fresh weight inhibition rate≥80% to 100%)”. The “Control efficacy grade, Cyperus iria” value in experiment [3] is given as “A (Fresh weight inhibition rate≥80% to 100%)”. The “Control efficacy grade, Echinochloa crusgalli” value in experiment [4] is “A (Fresh weight inhibition rate≥80% to 100%)”. In addition, the “Control efficacy grade, Digitaria sanguinalis” value in experiment [5] is listed as “A (Fresh weight inhibition rate≥80% to 100%)”.
With `C=CC[S+]([O-])c1c(S(C)(=O)=O)ccc(C(=O)Nc2nnnn2C)c1Cl` (racemic) [Compound 1-68], in experiment [1], the “Control efficacy grade, Leptochloa chinensis” value is on record as “A (Fresh weight inhibition rate≥80% to 100%)”. Besides, the “Control efficacy grade, Eclipta prostrata” value in experiment [2] is recorded as “A (Fresh weight inhibition rate≥80% to 100%)”. The “Control efficacy grade, Cyperus iria” value in experiment [3] is reported as “A (Fresh weight inhibition rate≥80% to 100%)”. Moreover, the “Control efficacy grade, Echinochloa crusgalli” value in experiment [4] is reported as “A (Fresh weight inhibition rate≥80% to 100%)”. The “Control efficacy grade, Digitaria sanguinalis” value in experiment [5] is “A (Fresh weight inhibition rate≥80% to 100%)”.
As for `CC(C)[S+]([O-])c1c(S(C)(=O)=O)ccc(C(=O)Nc2nnnn2C)c1Cl` (racemic) [Compound 1-7], the “Control efficacy grade, Leptochloa chinensis” value in experiment [1] was “A (Fresh weight inhibition rate≥80% to 100%)”. The “Control efficacy grade, Eclipta prostrata” value in experiment [2] is “A (Fresh weight inhibition rate≥80% to 100%)”. For the same compound, the “Control efficacy grade, Cyperus iria” value in experiment [3] is on record as “A (Fresh weight inhibition rate≥80% to 100%)”. The “Control efficacy grade, Echinochloa crusgalli” value in experiment [4] is “A (Fresh weight inhibition rate≥80% to 100%)”. In experiment [5], the “Control efficacy grade, Digitaria sanguinalis” value is recorded as “A (Fresh weight inhibition rate≥80% to 100%)”.
As for `Cc1nnc(NC(=O)c2ccc(S(C)(=O)=O)c(SC3CC3)c2Cl)o1` [Compound 3-77], in experiment [1], the “Control efficacy grade, Leptochloa chinensis” value is on record as “A (Fresh weight inhibition rate≥80% to 100%)”. Moreover, the “Control efficacy grade, Eclipta prostrata” value in experiment [2] is recorded as “A (Fresh weight inhibition rate≥80% to 100%)”. Besides, the “Control efficacy grade, Cyperus iria” value in experiment [3] is on record as “A (Fresh weight inhibition rate≥80% to 100%)”. Moreover, the “Control efficacy grade, Echinochloa crusgalli” value in experiment [4] was “A (Fresh weight inhibition rate≥80% to 100%)”. For the same compound, in experiment [5], the “Control efficacy grade, Digitaria sanguinalis” value was “A (Fresh weight inhibition rate≥80% to 100%)”.
As to `Cc1nnc(NC(=O)c2ccc(S(C)(=O)=O)c(SCCC(C)C)c2Cl)o1` [Compound 3-52], the “Control efficacy grade, Leptochloa chinensis” value in experiment [1] is recorded as “A (Fresh weight inhibition rate≥80% to 100%)”. Moreover, the “Control efficacy grade, Eclipta prostrata” value in experiment [2] is reported as “A (Fresh weight inhibition rate≥80% to 100%)”. For the same compound, the “Control efficacy grade, Cyperus iria” value in experiment [3] is given as “A (Fresh weight inhibition rate≥80% to 100%)”. In addition, the “Control efficacy grade, Echinochloa crusgalli” value in experiment [4] is reported as “B (Fresh weight inhibition rate≥260% to <80%)”. For the same compound, the “Control efficacy grade, Digitaria sanguinalis” value in experiment [5] is on record as “B (Fresh weight inhibition rate≥260% to <80%)”.
For the compound `CC(C)[S+]([O-])c1c(S(C)(=O)=O)ccc(C(=O)Nc2nnco2)c1Cl` (racemic) [Compound 3-273], the “Control efficacy grade, Leptochloa chinensis” value in experiment [1] is listed as “A (Fresh weight inhibition rate≥80% to 100%)”. The “Control efficacy grade, Eclipta prostrata” value in experiment [2] is “A (Fresh weight inhibition rate≥80% to 100%)”. In addition, the “Control efficacy grade, Cyperus iria” value in experiment [3] is “A (Fresh weight inhibition rate≥80% to 100%)”. Also, the “Control efficacy grade, Echinochloa crusgalli” value in experiment [4] was “A (Fresh weight inhibition rate≥80% to 100%)”. For the same compound, the “Control efficacy grade, Digitaria sanguinalis” value in experiment [5] is recorded as “A (Fresh weight inhibition rate≥80% to 100%)”.
With `CCC(C)[S+]([O-])c1c(S(C)(=O)=O)ccc(C(=O)Nc2nnc(C3CC3)o2)c1Cl` (mixture of isomers) [Compound 3-633], in experiment [1], the “Control efficacy grade, Leptochloa chinensis” value is given as “A (Fresh weight inhibition rate≥80% to 100%)”. In experiment [2], the “Control efficacy grade, Eclipta prostrata” value was “A (Fresh weight inhibition rate≥80% to 100%)”. The “Control efficacy grade, Cyperus iria” value in experiment [3] is given as “A (Fresh weight inhibition rate≥80% to 100%)”. In addition, the “Control efficacy grade, Echinochloa crusgalli” value in experiment [4] is “A (Fresh weight inhibition rate≥80% to 100%)”. Moreover, the “Control efficacy grade, Digitaria sanguinalis” value in experiment [5] is on record as “A (Fresh weight inhibition rate≥80% to 100%)”.
Regarding `CS(=O)(=O)c1ccc(C(=O)Nc2nnco2)c(Cl)c1SC1CCCCC1` [Compound 3-318], the “Control efficacy grade, Leptochloa chinensis” value in experiment [1] was “A (Fresh weight inhibition rate≥80% to 100%)”. Also, in experiment [2], the “Control efficacy grade, Eclipta prostrata” value is “A (Fresh weight inhibition rate≥80% to 100%)”. In experiment [3], the “Control efficacy grade, Cyperus iria” value was “A (Fresh weight inhibition rate≥80% to 100%)”. In addition, in experiment [4], the “Control efficacy grade, Echinochloa crusgalli” value was “A (Fresh weight inhibition rate≥80% to 100%)”. The “Control efficacy grade, Digitaria sanguinalis” value in experiment [5] was “A (Fresh weight inhibition rate≥80% to 100%)”.
Take `CCc1nnc(NC(=O)c2ccc(S(C)(=O)=O)c(SCC3CC3)c2Cl)o1` [Compound 3-414]: the “Control efficacy grade, Leptochloa chinensis” value in experiment [1] is “A (Fresh weight inhibition rate≥80% to 100%)”. The “Control efficacy grade, Eclipta prostrata” value in experiment [2] is “A (Fresh weight inhibition rate≥80% to 100%)”. Also, the “Control efficacy grade, Cyperus iria” value in experiment [3] is “A (Fresh weight inhibition rate≥80% to 100%)”. In addition, in experiment [4], the “Control efficacy grade, Echinochloa crusgalli” value is reported as “A (Fresh weight inhibition rate≥80% to 100%)”. In addition, in experiment [5], the “Control efficacy grade, Digitaria sanguinalis” value is reported as “A (Fresh weight inhibition rate≥80% to 100%)”.
As for `Cc1nnc(NC(=O)c2ccc(S(C)(=O)=O)c([S+]([O-])CC(C)C)c2Cl)o1` (racemic) [Compound 3-28], in experiment [1], the “Control efficacy grade, Leptochloa chinensis” value was “A (Fresh weight inhibition rate≥80% to 100%)”. The “Control efficacy grade, Eclipta prostrata” value in experiment [2] is recorded as “A (Fresh weight inhibition rate≥80% to 100%)”. The “Control efficacy grade, Cyperus iria” value in experiment [3] was “A (Fresh weight inhibition rate≥80% to 100%)”. The “Control efficacy grade, Echinochloa crusgalli” value in experiment [4] is “A (Fresh weight inhibition rate≥80% to 100%)”. Further, the “Control efficacy grade, Digitaria sanguinalis” value in experiment [5] is recorded as “A (Fresh weight inhibition rate≥80% to 100%)”.
Consider `CCC(C)S(=O)(=O)c1c(S(C)(=O)=O)ccc(C(=O)Nc2ncnn2C)c1Cl` (racemic) [Compound 2-24], for which the “Control efficacy grade, Leptochloa chinensis” value in experiment [1] was “A (Fresh weight inhibition rate≥80% to 100%)”. The “Control efficacy grade, Eclipta prostrata” value in experiment [2] is “A (Fresh weight inhibition rate≥80% to 100%)”. In addition, in experiment [3], the “Control efficacy grade, Cyperus iria” value is on record as “A (Fresh weight inhibition rate≥80% to 100%)”. The “Control efficacy grade, Echinochloa crusgalli” value in experiment [4] was “A (Fresh weight inhibition rate≥80% to 100%)”. In experiment [5], the “Control efficacy grade, Digitaria sanguinalis” value is listed as “A (Fresh weight inhibition rate≥80% to 100%)”.
As for `CCCSc1c(S(C)(=O)=O)ccc(C(=O)Nc2nnc(C)o2)c1Cl` [Compound 3-1], in experiment [1], the “Control efficacy grade, Leptochloa chinensis” value is given as “A (Fresh weight inhibition rate≥80% to 100%)”. Further, the “Control efficacy grade, Eclipta prostrata” value in experiment [2] is given as “A (Fresh weight inhibition rate≥80% to 100%)”. The “Control efficacy grade, Cyperus iria” value in experiment [3] was “A (Fresh weight inhibition rate≥80% to 100%)”. In experiment [4], the “Control efficacy grade, Echinochloa crusgalli” value is on record as “A (Fresh weight inhibition rate≥80% to 100%)”. For the same compound, the “Control efficacy grade, Digitaria sanguinalis” value in experiment [5] is recorded as “A (Fresh weight inhibition rate≥80% to 100%)”.
Turning to `C=CCSc1c(S(C)(=O)=O)ccc(C(=O)Nc2ncnn2C)c1Cl` [Compound 2-67], in experiment [1], the “Control efficacy grade, Leptochloa chinensis” value is reported as “B (Fresh weight inhibition rate≥260% to <80%)”. Also, the “Control efficacy grade, Eclipta prostrata” value in experiment [2] is given as “A (Fresh weight inhibition rate≥80% to 100%)”. The “Control efficacy grade, Cyperus iria” value in experiment [3] is on record as “A (Fresh weight inhibition rate≥80% to 100%)”. Also, in experiment [4], the “Control efficacy grade, Echinochloa crusgalli” value was “B (Fresh weight inhibition rate≥260% to <80%)”. Besides, the “Control efficacy grade, Digitaria sanguinalis” value in experiment [5] was “B (Fresh weight inhibition rate≥260% to <80%)”.
